Laboratory results from patent publication US9902709B2, “Polysubstituted pyridine compound, preparation method, use and pharmaceutical composition” (PEKING UNIVERSITY FOUNDER GROUP CO., LTD., priority 2014, dated 2018).
pIC50: −log10 of the molar value.

Legend:
[1] = system: human renal cancer 786-O transplantation; assay: Effect on tumor weight of human renal cancer 786-O transplantation nude mice (Comparative Experimental Example 1); assay type: in vivo; conditions: QD × 14 days, sorafenib as p-toluenesulfonate, FD-1210005 free form
Text: Comparative Experimental Example 1
The well grown 786-O solid tumor was cut into a mass of an average volume of about 1 mm^3 under aseptic conditions, and was used to inoculate nude mouse at axillary cavity of right forelimb subcutaneously via a trocar. The tumor growth state was observed regularly until the tumor grew into a volume of 250˜550 mm^3.
Animals with tumors of a too large or too small volume and an irregular shape were discarded. Tumor-bearing mice with a tumor volume of 250˜550 mm^3 in a good state were selected, 48 mice in total, and were divided into 6 groups, which were 1 solvent control group, 3 positive control groups, and 2 test sample groups. Both the positive control group and the test sample group were administered intragastrically once a day; the solvent control group was administered with 12.5% ethanol & 12.5% water solution of polyoxyethylene castor oil once a day; intragastrical volume was 10 mL/kg.
In the period of administration, tumor diameter was measured twice every week, tumor volume was calculated, and animal body weight was recorded. Animal state was observed when administered, and abnormal state was recorded.
Animal was sacrificed with CO2, and tumor was peeled off, weighed, and photographed. Animal was subjected to gross anatomy, and organs were observed by eyes to find if they were normal or not.
Observation Indexes: Tumor weight inhibiting rate (IR)=(WC−WT)/WC
Wherein WC and WT represented the average tumor weight of solvent control group and the average tumor weight of drug administration group, respectively.
Experimental data was subjected to calculation and relevant statistic processing by Microsoft Office Excel 2003 software. Unless otherwise specified, data was represented as Mean±Standard Error (Mean±S.E), and t-test is used in the comparison between two groups.

VEGFR2 = VEGFR2 (Homo sapiens (Human), UniProt P35968); assay: Inhibitory activity of VEGFR2 kinase (HTRF KinEASE-TK kit); assay type: biochemical
Experimental: HTRF®KinEASE™-TK kit (Cat.62TKOPEC, Cisbio);
VEGFR2 (Cat: k2643, Sigma);
2.1 Preparation of VEGFR2 Kinase Reagent
1× kinase buffer: 1 mL 1× kinase buffer contained 200 μL 5× kinase buffer (Invitrogen), 5 μL, 1M MgCl2, 1 μL 1M DTT, 1 μL 1M MnCl2, and 793 μL ddH2O;
5×TK substrate-biotin and ATP working fluid: as the concentrations of TK substrate-biotin and ATP, please refer to Table 1. TK substrate-biotin and ATP were diluted with 1× kinase buffer to 5 folds of the reaction concentrations;
5× kinase working fluid: as the concentration of VEGFR2 kinase, please refer to Table 1. 5× kinase working fluid was prepared with 1× Kinase buffer;
4× Sa-XL665 working fluid: as the concentration of Sa-XL665 (Cisbio) in the reaction, please refer to Table 1. The 4× Sa-XL665 working fluid was prepared with assay buffer (Cisbio);
4×TK Ab-cryptate working fluid: TK Ab-Cryptate (Cisbio) was 100-fold diluted with assay buffer (Cisbio), as working fluid;
Experimental Procedure of HTRF KinEASE TK Kit
After all the reagents were prepared as described above, the reagents except for enzymes were equilibrated to room temperature, then adding samples were performed.
TK substrate-biotin, ATP, VEGFR2 kinase and a compound at a certain concentration were reacted in 1× kinase buffer at room temperature for 20 minutes. […] To all the reaction wells, 5 μl 4× Sa-XL665 working fluid and 5 μl 4×TK Ab-cryptate working fluid were added. After reacting at room temperature for 1 hours, fluorescence signal (excited at 320 nm, emitted at 665 nm, 615 nm) was detected by ENVISION detector (Perkinelmer). Based on the full-active well and the background signal well, the inhibition rate for each well was calculated, and the average value was used for duplicate wells. The half maximal inhibitory concentration (IC50) for each test compound was fitted by professional software Graphpad PRISM 5.0.
2.3 Data Analysis Emission light ratio (ER)=665 nm emission signal/615 nm emission signal Inhibition rate=(ERpositive−ERsample)/(ERpositive−ERnegative)*100%
HTRF KinEASE TK kit was used to determine the IC50 value of a compound for kinase VEGFR2. The final concentration of the compound started from 100 μM, and 4-fold gradient dilution was carried out to provide 10 concentrations. Duplicate wells were used for each concentration. The final concentration of DMSO was controlled to 1% in the reaction system.

HCT116 xenograft = assay: Tumor-inhibiting effect on HCT116 xenograft tumor-bearing mice (Experimental Example 5); assay type: in vivo, Balb/c nude mice; conditions: QD × 14 day, free form; for TGI: from tumor weight
Experimental: HCT116 cells were cultured in McCoy's 5a culture medium containing inactivated 10% fetal bovine serum, 100 Um′ penicillin and 100 μg/ml streptomycin as well as 2 mM glutamine in an incubator at 37° C., 5% CO2. During cell culture, the initial concentration was 5×10^5 cells/ml, and the cells were separated into other bottles every 3 to 4 days when the cells reached a cell density of 100%. The tumor cells in logarithmic growth phase were used in tumor inoculation in vivo.
Balb/c nude mice was inoculated subcutaneously at right lateral thorax with HCT116 tumor cells re-suspended in PBS at 1.0×10^7 cells/0.1 ml. When the tumor grew into a volume of 800 mm^3, the animal was sacrificed and under aseptic conditions, tumor was peeled off. The well grown tumor tissues were cut into tumor mass with a size of 2×2×2 mm^3, and then were used to inoculate animal at right lateral thorax subcutaneously. 60 animals were inoculated. When the tumor grew into a volume of about 110 mm^3, the mice were grouped and administered, 5 groups in total, 8 mice per group.
The volume of tumor was measured by using Vernier caliper twice a week. The long diameter and short diameter of tumor were measured. The volume was calculated by the formula: volume=0.5× long diameter×short diameter^2. After the final measurement, the animal was sacrificed and the tumor was peeled off and weighed. Based on the tumor weight, tumor growth-inhibiting rate (TGI) was calculated. […] When the assay was finished, the experimental animal was subjected to euthanasia.

Sequence of VEGFR2 (P35968 20-1356): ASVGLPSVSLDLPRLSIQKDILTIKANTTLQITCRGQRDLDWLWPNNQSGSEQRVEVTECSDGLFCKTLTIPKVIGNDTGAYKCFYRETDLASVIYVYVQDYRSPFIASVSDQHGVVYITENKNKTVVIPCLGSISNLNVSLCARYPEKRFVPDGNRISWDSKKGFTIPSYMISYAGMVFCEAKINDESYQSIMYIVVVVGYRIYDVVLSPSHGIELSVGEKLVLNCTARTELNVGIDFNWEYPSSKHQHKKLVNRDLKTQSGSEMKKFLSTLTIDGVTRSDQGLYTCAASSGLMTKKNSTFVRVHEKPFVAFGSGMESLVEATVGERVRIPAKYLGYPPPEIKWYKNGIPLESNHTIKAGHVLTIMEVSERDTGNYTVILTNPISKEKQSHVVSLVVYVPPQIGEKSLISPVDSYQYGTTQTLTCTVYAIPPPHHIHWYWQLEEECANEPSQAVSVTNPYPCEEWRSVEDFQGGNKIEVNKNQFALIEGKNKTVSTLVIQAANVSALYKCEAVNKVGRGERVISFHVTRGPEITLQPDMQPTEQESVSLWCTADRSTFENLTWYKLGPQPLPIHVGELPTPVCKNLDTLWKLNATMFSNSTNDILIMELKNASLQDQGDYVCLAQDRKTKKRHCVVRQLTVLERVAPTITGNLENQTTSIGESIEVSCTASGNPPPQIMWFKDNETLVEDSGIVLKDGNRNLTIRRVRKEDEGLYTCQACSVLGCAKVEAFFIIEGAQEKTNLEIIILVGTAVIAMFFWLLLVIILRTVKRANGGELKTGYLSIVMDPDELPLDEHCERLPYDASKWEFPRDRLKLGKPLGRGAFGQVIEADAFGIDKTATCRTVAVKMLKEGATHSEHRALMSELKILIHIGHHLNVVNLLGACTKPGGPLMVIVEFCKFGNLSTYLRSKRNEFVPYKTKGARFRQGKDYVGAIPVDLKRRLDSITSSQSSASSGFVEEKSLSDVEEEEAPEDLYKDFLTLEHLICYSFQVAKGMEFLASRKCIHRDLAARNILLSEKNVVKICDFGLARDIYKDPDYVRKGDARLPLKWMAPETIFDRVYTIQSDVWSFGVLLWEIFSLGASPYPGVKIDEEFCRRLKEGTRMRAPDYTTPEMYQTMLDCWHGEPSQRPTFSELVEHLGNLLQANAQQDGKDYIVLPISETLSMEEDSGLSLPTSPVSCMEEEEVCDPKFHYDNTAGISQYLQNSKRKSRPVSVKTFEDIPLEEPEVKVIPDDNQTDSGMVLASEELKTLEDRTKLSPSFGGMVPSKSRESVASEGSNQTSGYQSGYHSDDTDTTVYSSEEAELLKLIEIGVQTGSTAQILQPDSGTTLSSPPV

pIC50 (VEGFR2; ATP 5 μM, 20 minutes, room temperature) | inhibitory activity as fold of that of Comparative compound 2 (VEGFR2; VEGFR2 kinase) | inhibitory activity as fold of that of Sorafenib (VEGFR2; VEGFR2 kinase) | IC50 value as fold of that of Comparative compound 2 (VEGFR2; VEGFR2 kinase, ratio of IC50) | IC50 value as fold of that of Sorafenib (free base) (VEGFR2; VEGFR2 kinase, ratio of IC50) | SMILES | Tumor weight Mean ± S.E ([1]; 20 mg/kg po) | Tumor-inhibiting rate ([1]; 20 mg/kg po) | Tumor weight Mean ± S.E ([1]; 60 mg/kg po) | Tumor-inhibiting rate ([1]; 60 mg/kg po) | Tumor weight (D27) Mean ± S.E (HCT116 xenograft; 10 mg/kg po) | TGI (HCT116 xenograft; 10 mg/kg po) | Tumor weight (D27) Mean ± S.E (HCT116 xenograft; 20 mg/kg po) | TGI (HCT116 xenograft; 20 mg/kg po) | Tumor weight (D27) Mean ± S.E (HCT116 xenograft; 40 mg/kg po) | TGI (HCT116 xenograft; 40 mg/kg po) | TGI (HCT116 xenograft; 40 mg/kg po, listed as FD-2013018)
– | – | – | – | – | CNC(=O)c1cc(Oc2ccc(NC(=O)Nc3ccc(Cl)c(C(F)(F)F)c3)cc2)ccn1 [Comparative example 1, Sorafenib, reference compound] | 0.5239 ± 0.1038 g | 44.01% | 0.4407 ± 0.0581 g | 52.89% | – | – | – | – | – | – | –
7.26 | 3.4 fold | 1.61 fold | 0.34 fold | 0.62 fold | Cn1cc(-c2nccc(Oc3ccc(NC(=O)Nc4ccc(Cl)c(C(F)(F)F)c4)cc3)c2Cl)cn1 [Example 2, 1-(4-chloro-3-(trifluoromethyl)phenyl)-3-(4-(3-chloro-2-(1-methyl-pyrazol-4-yl)-pyridin-4-yl-oxy)phenyl)urea] | – | – | – | – | 0.153 ± 0.078 g | 84.1% | 0.104 ± 0.035 g | 89.1% | 0.077 ± 0.043 g | 92% | 92.0%
